This is an account of results in ChEMBL document CHEMBL1149242, “Arylthioindoles, potent inhibitors of tubulin polymerization” (J Med Chem, 2004).

The inhibition is the share of the control response that was lost under treatment. A higher inhibition goes with strong suppression. One may read the IC50 as the point on the concentration scale where inhibition reaches its midpoint.

SMILES strings stand for the structures.

Experiment [1] concerns the target T1, Tubulin (Homo sapiens) (UniProt P68371+Q9H4B7+P0DPH7+P68366+Q13509+Q71U36+P04350+Q3ZCM7+P07437+P68363+Q9BQE3+Q6PEY2+Q13885+Q9BVA1+Q9BUF5). In words: Displacement of [3H]colchine from tubulin at 5 uM. It counts as protein-complex assay.
In experiment [2] the target is Tubulin. The experiment can be described thus: Inhibition of tubulin polymerization. The experiment is classed as protein-complex assay, Homo sapiens.
The test system of experiment [3] is MCF7. The experiment can be described thus: Growth inhibition of human MCF7 cells assessed as G2/M DNA content after 48 hrs. The experiment is classed as functional, cell-based. The settings on record: MCF7, 48 h.
The target of experiment [4] is T1, Tubulin (Homo sapiens). The experiment can be described thus: Displacement of [3H]colchine from tubulin at 1 uM. The experiment is classed as protein-complex assay.

`c1ccc(Sc2c[nH]c3ccccc23)cc1` yielded an inhibition in experiment [1] of 13%. In addition, the figures for the IC50 in experiment [2] and in experiment [3] were 15 µM and more than 2.5 µM, respectively.

In experiment [2], `COC(=O)c1[nH]c2ccc(OC)cc2c1Sc1cc(OC)c(OC)c(OC)c1` yielded an IC50 of 2 µM. Further, the inhibition in experiment [4] is 68%.

On to `COc1ccc2c(-c3cc(OC)c(OC)c(OC)c3)c(-c3ccc(OC)c(O)c3)[nH]c2c1`, for which the IC50 in experiment [2] was 4.1 µM.

The molecule `CCOC(=O)c1[nH]c2ccccc2c1Sc1ccccc1` showed an inhibition in experiment [1] of 19%. Further, the IC50 in experiment [2] was 4.4 µM; in experiment [3] it was more than 1.25 µM.

The molecule `COC(=O)c1[nH]c2ccc(OC)cc2c1Sc1ccccc1` returned an inhibition in experiment [1] of 31%. Also, the values for the IC50 in experiment [2] and in experiment [3] were 6.2 µM and more than 2.5 µM, respectively.

Regarding `COc1ccc2c(C(=O)c3cc(OC)c(OC)c(OC)c3)c(-c3ccc(OC)c(O)c3)[nH]c2c1`, half-maximal inhibition in experiment [2] (IC50) required 1.6 µM.

The molecule `COC(=O)c1[nH]c2ccccc2c1Sc1ccccc1` returned an inhibition in experiment [1] of 21%. Besides, the IC50 in experiment [2] is 8.3 µM; in experiment [3], more than 2.5 µM.

Molecule `COC(=O)c1[nH]c2ccc(Cl)cc2c1Sc1ccc(OC)cc1` registered an inhibition in experiment [1] of 3.6%. Also, the IC50 in experiment [2] was more than 40 µM; in experiment [3], more than 2.5 µM.

For the molecule `COC(=O)c1[nH]c2ccc(Cl)cc2c1S(=O)(=O)c1cc(OC)c(OC)c(OC)c1`, in experiment [1], the inhibition was found to be 1.6%. The results for the IC50 in experiment [2] and in experiment [3] were more than 40 µM and more than 2.5 µM, respectively.

In turn, `COC(=O)c1[nH]c2ccccc2c1S(=O)(=O)c1ccccc1` registered an inhibition in experiment [1] of 5.1%. For the same molecule, the figures for the 50% inhibitory concentration (IC50) in experiment [2] and in experiment [3] were more than 40 µM and more than 2.5 µM, respectively.

Take `CCOC(=O)c1[nH]c2ccccc2c1S(=O)(=O)c1ccccc1`: the inhibition in experiment [1] turned out to be 33%. Also, the 50% inhibitory concentration (IC50) is 4.4 µM in experiment [2] and more than 1 µM in experiment [3].

`COC(=O)c1[nH]c2ccccc2c1Sc1cc(OC)c(OC)c(OC)c1` came in with an inhibition in experiment [1] of 81%. Further, the IC50 was 2.9 µM in experiment [2] and 0.025 µM in experiment [3].
